From patent US20230381142A1, “ANTILEISHMANIAL COMPOUNDS, COMPOSITIONS AND USE THEREOF” (TRUSTEES OF BOSTON UNIVERSITY, priority 2022, published 2023)
In brackets after ≈: the same amount, converted by molar mass.

What was measured:
[1] = system: L. donovani intracellular amastigotes infecting THP-1 macrophages; assay: GSK intramacrophage L. donovani assay (LD AMMAC, inMac; Assay Conditions C); format: cell-based; details: Leishmania donovani; for IC50: THP-1; for EC50: growth inhibition of L. donovani intracellular amastigotes infecting THP-1 macrophages, read-out: LD AMMAC EC50
Summary of the method: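 EC50 values come from counting amastigotes per infected THP-1 macrophage (AMMAC). Parallel read-outs give percentage of infected cells per well (INFCELL) and a macrophage-number toxicity EC50 (MAC).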

host THP-1 macrophages = assay: GSK inMac assay, host cell toxicity readout (LD MAC); format: cell-based, human; details: Homo sapiens, THP-1, cytotoxicity against host THP-1 macrophages
Summary of the method: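 MAC EC50 reflects THP-1 host cell counts, measured within GSK's inMac L. donovani infection assay that also scores intracellular amastigotes and infected-cell percentage.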

HepG2 cells = assay: HepG2 cytotoxicity; format: cell-based; details: Homo sapiens; toxicity against HepG2 cells
Experimental: Given the literature precedents described above and the apparent narrow tolerance for R^3 substitutions observed in the primary screen compounds, a thorough and methodical assessment was undertaken of tolerated groups at the three points of diversity (R^1/R^2/R^3) for the core. At this stage of the project, all analogues were assessed using a battery of assays performed in-house at GlaxoSmithKline. For antileishmanial activity, GSK's inMac assay was utilized. This assay provides two readouts of compound potency: average number of intracellular amastigotes per infected cell (AMMAC) EC50, percentage of infected cells per well (INFCELL) EC50, as well as a toxicity output derived from the number of host cells (MAC EC50). In addition, compounds were assessed for toxicity against HepG2 cells (HEPG2 EC50). Here, AMMAC EC50 values were focused on for relative potency assessments. […] It should be noted that for all compounds assessed in this project, the measured toxicity against THP-1 macrophages either equaled or exceeded that of HepG2 hepatocytes, therefore the MAC SI is used here as the more conservative estimate of therapeutic index.

[2] = system: L. donovani intracellular amastigotes in B10R cells; assay: UCSD L. donovani infection assay (Assay Conditions D); format: cell-based; details: Leishmania donovani
Summary of the method: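 Compounds, either single-point at 10 μM or 10-point 2-fold series (3 technical, 2 biological replicates), were incubated 72 h at 37° C. with B10R host cells co-seeded with day-7 stationary L. donovani promastigotes (20:1). DAPI-stained nuclei imaging yielded intracellular parasite EC50 and host-cell CC50.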

[3] = Kinetic aqueous solubility by CLND; format: physicochemical; details: kinetic from dmso stock, high-throughput CLND
Experimental: Solubility of compounds using ChemiLuminescent Nitrogen Detection (CLND) was measured as described. Solubility of compounds using Charged Aerosol Detection (CAD) was measured as described. Solubility of solid compounds in Fasted Simulated Intestinal Fluid (FaSSIF) was measured as described.

[4] = Artificial membrane permeability (AMP); format: in vitro ADME; details: PAMPA, pH 7.4
Experimental: Passive permeability of compounds via rate of permeation through an artificial phospholipid membrane at pH 7.4 was measured in a high-throughput format, in duplicate. A solution of 1.8% phosphatidylcholine in 1% decane was added to a 96-well Millicell filter plate along with 250 μL of 50 mM phosphate buffer, pH 7.4 on the donor side, and 100 μL of the same buffer solution on the receiver side. The assay plate was shaken for 45 minutes before adding test compounds. Test compounds were then added to the filter plate and then incubated at room temperature with shaking for three hours. The donor and receiver solutions were next transferred to a 384-well plate for analysis by LC/MS.

human serum albumin = human serum albumin (Homo sapiens, UniProt P02768); assay: Human serum albumin (HSA) binding, chromatographic; format: in vitro ADME
Experimental: The percentage of compound bound to human serum albumin was measured using a chromatographic method as described. Briefly, each compound was assayed on an immobilized HSA column and gradient retention times measured, with chromatographic peak detection by UV. Each retention time was then converted to a % HSA bound value using a calibration set of compounds with a known % HSA binding.

[5] = Property forecast index (PFI = ChromLogD7.4 + aromatic rings); format: physicochemical
[6] = aqueous medium (not further specified)

Sequence of human serum albumin (P02768 25-609): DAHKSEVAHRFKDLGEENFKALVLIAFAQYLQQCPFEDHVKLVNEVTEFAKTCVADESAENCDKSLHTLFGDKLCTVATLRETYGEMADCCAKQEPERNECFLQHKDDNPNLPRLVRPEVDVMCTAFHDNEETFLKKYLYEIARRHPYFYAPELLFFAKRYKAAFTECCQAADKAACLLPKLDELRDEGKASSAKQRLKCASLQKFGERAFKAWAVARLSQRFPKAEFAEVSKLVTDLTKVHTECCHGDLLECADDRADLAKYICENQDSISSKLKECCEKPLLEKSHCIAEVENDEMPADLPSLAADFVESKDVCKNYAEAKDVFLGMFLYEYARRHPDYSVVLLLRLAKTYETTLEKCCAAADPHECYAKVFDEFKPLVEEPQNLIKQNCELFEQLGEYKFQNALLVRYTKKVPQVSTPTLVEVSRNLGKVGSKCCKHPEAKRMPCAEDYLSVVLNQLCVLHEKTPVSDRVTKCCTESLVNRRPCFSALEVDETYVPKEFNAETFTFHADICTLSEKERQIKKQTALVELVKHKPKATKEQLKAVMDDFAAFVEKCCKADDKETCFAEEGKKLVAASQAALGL

EC50 [1] [µM]	solubility ([3]; aqueous (not further specified)) [µM]	Papp at 3 h [4] [nm/s]	HSA Binding (human serum albumin) [%]	PFI [5]	solubility [3, 6] [µM]	SMILES	IC50 [1] [µM]	EC50 (host THP-1 macrophages) [µM]	EC50 (HepG2 cells) [µM]	IC50 [2] [µM]	solubility ([3]; aqueous medium) [µM]
15.8		290	94.8	9.0	188 (≈ 86.2 µg/mL)	COc1ccc(N2C(=O)c3[nH]nc(CC(C)C)c3C2C2CCN(Cc3ccccc3)CC2)cc1 (stereo not drawn) [Compound S1]		20	63.1		
7.9		300	95.9	8.2	8 (≈ 2.94 µg/mL)	COc1ccc(N2C(=O)c3[nH]nc(CC(C)C)c3C2c2cccs2)cc1 (stereo not drawn) [Compound S2]		> 50	> 100		
6.3		470	95.4	8.3	149 (≈ 54.8 µg/mL)	COc1ccc(N2C(=O)c3[nH]nc(CC(C)C)c3C2c2ccsc2)cc1 (stereo not drawn) [Compound S3]	6.3	> 50	> 100	4	
15.8		320	89.3	6.5	≥ 534	COc1ccc(N2C(=O)c3[nH]nc(CC(C)C)c3C2c2cncs2)cc1 (stereo not drawn) [Compound S4]		> 50	> 100		
20		420	89.5	7.2	143 (≈ 52.7 µg/mL)	COc1ccc(N2C(=O)c3[nH]nc(CC(C)C)c3C2c2nccs2)cc1 (stereo not drawn) [Compound S5]		> 50	> 100		
> 50		230	87.9	6.3	≥ 432	COc1ccc(N2C(=O)c3[nH]nc(CC(C)C)c3C2c2ccncc2)cc1 (stereo not drawn) [Compound S6]		> 50	> 100		
31.6		420	86.8	7.1	≥ 450	COc1ccc(N2C(=O)c3[nH]nc(CC(C)C)c3C2c2ccccn2)cc1 (stereo not drawn) [Compound S7]		> 50	> 100		
> 50		340	76.8	6.3	273 (≈ 99.2 µg/mL)	COc1ccc(N2C(=O)c3[nH]nc(CC(C)C)c3C2c2ccncn2)cc1 (stereo not drawn) [Compound S8]		> 50	> 100		
> 50		50	70.5	5.5	≥ 340	COc1ccc(N2C(=O)c3[nH]nc(CC(C)C)c3C2c2ccnnc2)cc1 (stereo not drawn) [Compound S9]		> 50	> 100		
10		470	91.2	6.6	386 (≈ 151 µg/mL)	COc1ccc(N2C(=O)c3[nH]nc(CC(C)C)c3C2c2cncc(OC)c2)cc1 (stereo not drawn) [Compound S11]		20	> 100		
> 50		440	92.6	7.5	272 (≈ 107 µg/mL)	COc1ccc(N2C(=O)c3[nH]nc(CC(C)C)c3C2c2ccc(OC)nc2)cc1 (stereo not drawn) [Compound S12]		> 50	> 100		
12.6		380	94.4	8.3	305 (≈ 120 µg/mL)	COc1ccc(N2C(=O)c3[nH]nc(CC(C)C)c3C2c2ccc(F)c(C)n2)cc1 (stereo not drawn) [Compound S13]		> 50	> 100		
> 50		540	93	7.4	367 (≈ 146 µg/mL)	COc1ccc(N2C(=O)c3[nH]nc(CC(C)C)c3C2c2cc(F)nc(F)c2)cc1 (stereo not drawn) [Compound S14]		> 50	> 100		

The next lines start with the compound.

SMILES	EC50 [1] [µM]	solubility ([3]; aqueous (not further specified)) [µM]	Papp at 3 h [4] [nm/s]	HSA Binding (human serum albumin) [%]	PFI [5]	solubility [3, 6] [µM]	IC50 [1] [µM]	EC50 (host THP-1 macrophages) [µM]	EC50 (HepG2 cells) [µM]	IC50 [2] [µM]	solubility ([3]; aqueous medium) [µM]
CC(C)Cc1n[nH]c2c1C(c1ccc(F)cc1)N(c1ccc(N(C)C)cc1)C2=O (stereo not drawn) [Compound 21, 5-(4-(dimethylamino)phenyl)-4-(4-fluorophenyl)-3-isobutyl-4,5-dihydropyrrolo[3,4-c]pyrazol-6(1H)-one]	1	33 (≈ 13 µg/mL)	160	96.1	9.0		1	39.8	50.1	0.2	
CC(C)Cc1n[nH]c2c1C(c1ccc(F)cc1)N(CCN1CCCC1)C2=O (stereo not drawn) [Compound 39]	15.8		230	76.7	5.3	≥ 433	15.9	> 50	> 100	10.4	
COc1ccc(N2C(=O)c3[nH]nc(CC(C)C)c3C2c2ccc(F)cc2)cc1F (stereo not drawn) [Compound 42, 5-(3-fluoro-4-methoxyphenyl)-4-(4-fluorophenyl)-3-isobutyl-4,5-dihydropyrrolo[3,4-c]pyrazol-6(2H)-one]	1.3		290	96.9	8.6		1.3	25.1	50.1	0.6	39 (≈ 15.5 µg/mL)
CC(C)Cc1n[nH]c2c1C(c1ccc(F)cc1)N(c1ccc3c(c1)OCO3)C2=O (stereo not drawn) [Compound 44, 5-(benzo[d][1,3]dioxol-5-yl)-4-(4-fluorophenyl)-3-isobutyl-4,5-dihydropyrrolo[3,4-c]pyrazol-6(1H)-one]	0.6		390	96.2	8.4		0.6	25.1	63.1	0.3	63 (≈ 24.8 µg/mL)
CC(C)Cc1n[nH]c2c1C(c1ccc(F)cc1)N(c1ccc3c(c1)OCCO3)C2=O (stereo not drawn) [Compound 45]	3.2		510	96.2	8.4		3.2	25.1	> 50	0.9	50 (≈ 20.4 µg/mL)
COc1ccc(N2C(=O)c3[nH]nc(CC(C)C)c3C2c2ccccc2Cl)cc1 (stereo not drawn) [Compound 55, 4-(2-chlorophenyl)-3-isobutyl-5-(4-methoxyphenyl)-4,5-dihydropyrrolo[3,4-c]pyrazol-6(1H)-one]	1.3		330	97.8	8.8	30 (≈ 11.9 µg/mL)	1.3	20	31.6	0.2	
COc1ccc(N2C(=O)c3[nH]nc(CC(C)C)c3C2c2ccc(F)cn2)cc1 (stereo not drawn) [Compound S10]	10		490	90.2	7.7	≥ 343	10	> 50	> 100	3.4	
